From PMC7586344, “Discovery of Novel pERK1/2- or β-Arrestin-Preferring 5-HT1A Receptor-Biased Agonists: Diversified Therapeutic-like versus Side Effect Profile” (Journal of Medicinal Chemistry, 2020)

Experiments:
H1 = biological target: T1, H1 (Homo sapiens, UniProt P35367); assay: Off-target binding screen; details: 1000 nM, read-out: % Inhibition of Control Specific Binding
T1 construct: Eurofins Pharma Discovery Services (contract assay)

β1 = biological target: T2, β1 (Homo sapiens, UniProt P08588); assay: Off-target binding screen; details: 1000 nM, read-out: % Inhibition of Control Specific Binding
T2 construct: Eurofins Pharma Discovery Services (contract screen)
T2 sequence (P08588 whole entry): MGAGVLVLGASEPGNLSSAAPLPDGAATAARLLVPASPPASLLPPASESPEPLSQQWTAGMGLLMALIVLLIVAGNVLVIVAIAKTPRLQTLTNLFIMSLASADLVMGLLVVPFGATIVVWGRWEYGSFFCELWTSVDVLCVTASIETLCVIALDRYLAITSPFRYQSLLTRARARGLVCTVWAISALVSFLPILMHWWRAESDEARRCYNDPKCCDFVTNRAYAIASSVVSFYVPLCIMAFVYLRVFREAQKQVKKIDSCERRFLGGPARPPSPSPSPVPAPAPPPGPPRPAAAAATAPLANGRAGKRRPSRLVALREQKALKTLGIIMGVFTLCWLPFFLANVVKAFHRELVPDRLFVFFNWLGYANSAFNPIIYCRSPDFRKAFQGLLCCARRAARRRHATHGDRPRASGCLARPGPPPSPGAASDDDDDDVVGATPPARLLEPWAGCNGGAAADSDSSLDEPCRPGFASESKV

HepG2 cells = assay: Hepatotoxicity, HepG2 cell viability; assay type: cell-based, human; details: 72 h incubation
[1] = Preliminary metabolic stability in rat liver microsomes; assay type: in vitro ADME; details: pH 7.4, RLMs 1 mg/mL, 50 μM compound, 37 °C
[2] = In vitro rat plasma protein binding (ultrafiltration); assay type: in vitro ADME; details: rat serum; for fraction unbound at 30 min, 3 µg/mL / fraction unbound at 30 min, 30 µg/mL: male, Wistar, read-out: PPB ± SD (converted)
Protocol: Fresh blood was harvested from male adult Wistar rats that were sacrificed by exsanguination. The blood was allowed to clot for 20 min at room temperature and then centrifuged at 3000 rpm for 10 min (Universal 32, Hettich, Germany). 56 and 44 dissolved in water were added in volume of 10 μL to separate glass tubes containing 1 mL aliquots of rat serum to achieve final concentrations of 3 and 30 μg/mL each. All tests were run in triplicate. After vortexing, the serum samples were incubated in a water bath at 37 °C for 30 min with gentle shaking. Following this incubation period, 100 μL of serum samples from each tube were transferred to Eppendorf tubes and frozen at −80 °C for analysis. The remaining serum was transferred into Centrifree ultrafiltration devices with Ultracel regenerated cellulose membrane (Merck, Darmstadt, Germany) and centrifuged at 1000g for 15 min (EBA III centrifuge, Hettich, Germany). The collected ultrafiltrates were frozen (−80 °C) for further analysis.

panel of 45 off-targets = details: highest off-target affinity, estimated from screening data
male Wistar rats [3] = assay: Porsolt forced swimming test; assay type: in vivo; details: rat FST, 60 min before test, mean ± SEM
Protocol: The experiments were performed on male Wistar rats (170–200 g) obtained from an accredited animal facility at the Jagiellonian University Medical College, Krakow, Poland. […] Standard laboratory food (LSM-B) and filtered water were freely available. […] Each animal was assigned randomly to treatment groups and only used once (no repeated use of animals). All the experiments were performed by two observers unaware of the treatment applied between 9:00 and 14:00 on separate groups of animals. […] All efforts were made to minimize suffering and to reduce the number of animals used in the experiments and to use only the number of animals necessary to produce reliable scientific data. Each experimental group consisted of 6–8 animals. […] The examined compounds were administered orally 60 min before tests. In antagonism experiments, WAY100635 (Tocris, UK) was administered subcutaneously 75 min before testing. Control animals received vehicle (distilled water) according to the same schedule. […] On the following day (24 h later), the rats were re-placed in the cylinder after administration of test compounds and the total duration of immobility was recorded during the 5-min test period. […] Fresh water was used for each animal.

male Wistar rats [4] = assay: Lower lip retraction; assay type: in vivo; details: rat; for LLR score: 50 min before test, score 0-10; for ability to induce lower lip retraction (LLR), in words: p.o.
Protocol: The experiments were performed on male Wistar rats (170–200 g) obtained from an accredited animal facility at the Jagiellonian University Medical College, Krakow, Poland. […] All efforts were made to minimize suffering and to reduce the number of animals used in the experiments and to use only the number of animals necessary to produce reliable scientific data. Each experimental group consisted of 6–8 animals.
The examined compounds were administered orally 60 min before tests. In antagonism experiments, WAY100635 (Tocris, UK) was administered subcutaneously 75 min before testing. Control animals received vehicle (distilled water) according to the same schedule.
Observations were made according to the method described by Kleven et al.([68]) Animals were observed individually during a 10 min period for 10 s of observation per animal. During each of these observation periods, the uninterrupted presence for at least 3 s (1) or absence (0) of LLR was recorded. This cycle was repeated 10 times over a 10 min period; thus, the incidence of a particular behavior could vary from 0 to 10.

T1 sequence (P35367 whole entry): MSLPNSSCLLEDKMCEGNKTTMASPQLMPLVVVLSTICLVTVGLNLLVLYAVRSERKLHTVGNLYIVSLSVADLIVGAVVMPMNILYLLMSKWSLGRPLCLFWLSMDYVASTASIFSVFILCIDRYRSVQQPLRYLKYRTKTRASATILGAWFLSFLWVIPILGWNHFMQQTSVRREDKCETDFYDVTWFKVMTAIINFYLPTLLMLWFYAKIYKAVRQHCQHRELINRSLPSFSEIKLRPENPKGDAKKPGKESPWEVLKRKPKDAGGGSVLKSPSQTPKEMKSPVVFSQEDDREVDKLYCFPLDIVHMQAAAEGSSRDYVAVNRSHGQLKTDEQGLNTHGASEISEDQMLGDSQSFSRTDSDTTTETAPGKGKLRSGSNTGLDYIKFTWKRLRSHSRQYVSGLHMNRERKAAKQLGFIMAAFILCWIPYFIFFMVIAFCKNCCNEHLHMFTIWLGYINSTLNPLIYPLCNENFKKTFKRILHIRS

Structure (SMILES) | inhibition at 1 µM (H1) | inhibition at 1 µM (β1) | hepatotoxicity 50% viability of HepG2 cells (HepG2 cells) | remaining at 2 h, 50 μM [1] | fu ± SD ([2]; C0 3 µg/mL) | fu ± SD ([2]; C0 30 µg/mL) | fraction unbound at 30 min, 3 µg/mL ([2]; C0 3 µg/mL) | fraction unbound at 30 min, 30 µg/mL ([2]; C0 30 µg/mL) | affinity for some of the off-targets (pKi) (panel of 45 off-targets) | Immobility time (male Wistar rats [3]; 1.25 mg/kg p.o.) | LLR score (male Wistar rats [4]; 0.312 mg/kg p.o.) | LLR score (male Wistar rats [4]; 1.25 mg/kg p.o.) | ability to induce lower lip retraction (LLR), in words (male Wistar rats [4]) | Immobility time (male Wistar rats [3]; 0.04 mg/kg p.o.) | LLR score (male Wistar rats [4]; 0.04 mg/kg p.o.)
O=C(c1ccc(F)c(Cl)c1)N1CCC(F)(CNCCOc2ccccc2)CC1 [Compound 3] | -9% | -8% | >50 µM | 59.2% |  |  |  |  |  |  |  |  |  |  | 
O=C(c1ccc(F)c(Cl)c1)N1CCC(F)(CNCCOc2cccc3[nH]ccc23)CC1 [Compound 56, (4-(((2-((1H-Indol-4-yl)oxy)ethyl)amino)methyl)-4-fluoropiperidin-1-yl)(3-chloro-4-fluorophenyl)methanone] |  |  | >50 µM | 87.4% | 1.1 ± 0.1% | 1.9 ± 0.1% | 0.011 | 0.019 | ~8 | 67.63 ± 7.83 s | 10 ± 0 | 10 ± 0 | elicited a full LLR |  | 
CNc1ccccc1OCCNCC1(F)CCN(C(=O)c2ccc(F)c(Cl)c2)CC1 [Compound 44, (3-Chloro-4-fluorophenyl)(4-fluoro-4-(((2-(2-(methylamino)phenoxy)ethyl)amino)methyl)piperidin-1-yl)methanone] | -5% | -5% |  |  | 1.6 ± 0.1% | 1.8 ± 0.1% | 0.016 | 0.018 |  |  |  |  | did not induce any significant LLR | 199.50 ± 12.35 s | 0
